Measured values: US11602496B2, “Use of gingerone or derivatives thereof for reducing or delaying the signs of skin ageing” (L'OREAL, priority 2011, dated 2023)
Marks after values point to notes of the source that are not given here.

System: filaggrin expression in normal human keratinocytes (NHEKs)
Experiment: Filaggrin expression in normal human keratinocytes in culture (in situ immunolabelling, fluorescence relative to number of nuclei)
Format: cell-based
Details: for filaggrin expression, % relative to the control / change in expression of filaggrin by the keratinocytes relative to the control: NHEKs; for filaggrin expression, % relative to the control: 144 hours incubation, n=3, control complete SFM medium = 100; for change in expression of filaggrin by the keratinocytes relative to the control: 144 hours
Procedure: The in vitro effect of gingerone (compound 1, the chemical formula of which is given above) on keratinocyte differentiation is studied. The expression and the location of the marker of filaggrin differentiation are especially studied in keratinocytes in culture which thus makes it possible to evaluate the capacity of this compound to increase the differentiation of these cells. Normal human keratinocytes (NHEKs) were cultured at 37° C. and 5% CO2 for 24 h in a complete SFM medium until moderate confluence was obtained. A complete SFM medium is an SFM culture medium supplemented with pituitary extract (25 μg/ml), EGF (0.25 ng/ml) and gentamicin (25 μg/ml). […] The keratinocytes were then incubated for 144 hours. The treatments were carried out in triplicate (n=3). At the end of the incubation, the culture medium was removed and the cells were […], fixed, permeabilized then labelled with the primary antibody targeted against the filaggrin protein of interest (in situ immunolabelling). […] At the same time, the nuclei of the cells were stained with Hoechst 33258 (bisbenzimide). Image acquisition was carried out using an INCell AnalyzerTM1000 machine. The labels were quantified by measuring the fluorescence intensity of the proteins relative to the number of nuclei identified by the Hoechst product.

[Ca+2].[Cl-].[Cl-] [CaCl2, calcium chloride, reference compound]
filaggrin expression, % relative to the control (1.5 mM): 158** %
change in expression of filaggrin by the keratinocytes relative to the control (calcium chloride treatment (1.5 mM in Table 1)): +58%

COc1cc(CCC(C)=O)ccc1O [Gingerone]
change in expression of filaggrin by the keratinocytes relative to the control (2 μg/ml): +33%
filaggrin expression, % relative to the control (2 μg/ml): 133* %
change in expression of filaggrin by the keratinocytes relative to the control (20 μg/ml): +51%
filaggrin expression, % relative to the control (20 μg/ml): 151* %
effect on expression of the filaggrin protein (in words) (normal human epidermal keratinocytes): significantly and dose-dependently increases the expression of the filaggrin protein

CC1=C(/C=C/C(C)=C/C=C/C(C)=C/C(=O)O)C(C)(C)CCC1 [Retinoic acid, retinoic acid, reference compound]
filaggrin expression, % relative to the control (10^−7 M): 3** %
change in expression of filaggrin by the keratinocytes relative to the control (retinoic acid treatment (10^−7 M in Table 1)): −97%
